Measured values reported in patent publication US12036229B2, “Use of phosphorylated heptose compounds” (NATIONAL RESEARCH COUNCIL OF CANADA, priority 2017, dated 2024).

Test system: CT26 cells (colon carcinoma from BALB/c mice)
Assay: CT26 tumour model in BALB/c mice
Format: in vivo
Settings: intraperitoneal; HMP 200 μg per day D10, D11, D12; LPS 1x at 3 mg/kg; 11 day period, vs PBS; FIG. 14c

Substance: lipopolysaccharide [LPS]
- change in tumour volume relative to day 10 (rate of tumour growth): significantly reduced the rate of tumour growth
